Experimental findings from patent US20190275012A9, “SUBSTITUTED THIAZOLO-PYRIDINE COMPOUNDS AS MALT1 INHIBITORS” (Lupin Limited, priority 2016, published 2019) are described below.

The test system of assay [1] is NF-kB transcriptional activity in HEK-293-NF-kB-Luc cell line overexpressing MALT1. Put plainly: NF-kB reporter assay (luciferase, MALT1 stably overexpressed). The format is cell-based. Conditions: Homo sapiens, 24 h, HEK-293-NF-kB-Luc cells stably overexpressing MALT1, 24 h treatment, Bright Glo luminescence; read-out: NF-kB inhibition IC50. In a few lines:
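Inhibition of NF-κB activity was expressed relative to 0.1% DMSO wells, from luminescence after 10 min Bright Glo at ambient temperature. Compounds had been applied for 24 h to adhered MALT1-overexpressing HEK-293 NF-κB luciferase reporter cells.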

Assay [2] concerns OCI-Ly-10 cells. Put plainly: Anticancer assay (14 days), cell viability by CCK-8. The format is cell-based. Conditions: Homo sapiens, OCI-Ly10, 336 h, 14 days treatment, fresh treatment every 5th day, CCK-8 viability, read-out: Ly-10 (14d) inhibition IC50. As for the experimental part: OCI-Ly-10 cells (UHN, Canada) seeded in culture media (IMDM+20% FBS) in 96-well plates were treated with various concentrations of the test compounds. Cells were treated for a period of 14 days (13-15 days depending on the confluency of cells) with fresh treatments every 5th day. After the first treatment, for all subsequent treatments, the cells were centrifuged, the spent media was removed and fresh media containing the test compound was added. Cell viability was assessed using CCK-8 kit (Dojindo Laboratories, China) as per manufacturer's instructions. Plates were read in colorimeter and absorbance was detected. (Detection at 450 nm; Background correction at 650 nm). % inhibition was calculated relative to the samples containing media with 0.1% DMSO alone as per the following formula

The IC50 is the midpoint of a concentration-inhibition curve. For the molecule `COC(C)c1c(NC(=O)Nc2cnc(-n3ccnn3)c(C(F)F)c2)cnc2sc(C)nc12` (single isomer, unassigned) [Compound 206b, (S) or (R)-1-(5-(Difluoromethyl)-6-(1H-1,2,3-triazol-1-yl)pyridin-3-yl)-3-(7-(1-methoxyethyl)-2-methylthiazolo[5,4-b]pyridin-6-yl)urea], the IC50 was 0.001 to 0.1 µM in assay [1] and 0.101 to 0.25 µM in assay [2].

For `CCOc1nc(-n2nccn2)c(C(F)(F)F)cc1NC(=O)Nc1cnc2sc(C)nc2c1C(C)OC` (single isomer, unassigned) [Compound 221, (S) or (R)-1-(2-ethoxy-6-(2H-1,2,3-triazol-2-yl)-5-(trifluoromethyl)pyridin-3-yl)-3-(7-(1-methoxyethyl)-2-methylthiazolo[5,4-b]pyridin-6-yl)urea], the figures for the IC50 in assay [1] and in assay [2] were 0.001 to 0.1 µM and 0.026 to 0.1 µM, respectively.

With `COCC(OC)c1c(NC(=O)Nc2cnc(OC)c(Cl)c2)cnc2sc(C)nc12` (stereo not drawn) [Compound 34a, 1-(5-chloro-6-methoxypyridin-3-yl)-3-(7-(1,2-dimethoxyethyl)-2-methylthiazolo[5,4-b]pyridin-6-yl)urea], the 50% inhibitory concentration (IC50) was in the range of 0.101 to 0.5 µM in assay [1] and 0.101 to 0.25 µM in assay [2].

In the case of `O=C(Nc1cnc(-n2nccn2)c(Cl)c1)Nc1cnc2scnc2c1C1CC1` [Compound 35, 1-(5-Chloro-6-(2H-1,2,3-triazol-2-yl)pyridin-3-yl)-3-(7-cyclopropylthiazolo[5,4-b]pyridin-6-yl)urea], the IC50 in assay [1] fell in the range of 0.001 to 0.1 µM; in assay [2] it was 0.026 to 0.1 µM.

Consider `Cc1nc2c(N(C)CC3CC3)c(NC(=O)Nc3cnc(-n4nccn4)c(Cl)c3)cnc2s1` [Compound 42, 1-(5-Chloro-6-(2H-1,2,3-triazol-2-yl)pyridin-3-yl)-3-(7-((cyclopropylmethyl)(methyl)amino)-2-methylthiazolo[5,4-b]pyridin-6-yl)urea], for which the IC50 in assay [1] fell in the range of 0.001 to 0.1 µM; in assay [2], 0.026 to 0.1 µM.

`COCCN(C)c1c(NC(=O)Nc2cnc(-n3nccn3)c(Cl)c2)cnc2sc(C)nc12` [Compound 44, 1-(5-Chloro-6-(2H-1,2,3-triazol-2-yl)pyridin-3-yl)-3-(7-((2-methoxyethyl)(methyl)amino)-2-methylthiazolo[5,4-b]pyridin-6-yl)urea]: the IC50 in assay [1] is 0.101 to 0.5 µM; in assay [2] it was 0.101 to 0.25 µM.

For `COc1ncc(NC(=O)Nc2cnc3sc(C)nc3c2N(C)CC(C)OC)cc1Cl` (stereo not drawn) [Compound 55a, 1-(5-Chloro-6-methoxypyridin-3-yl)-3-(7-((2-methoxypropyl)(methyl)amino)-2-methylthiazolo[5,4-b]pyridin-6-yl)urea], the IC50 is 0.501 to 1.5 µM in assay [1] and 0.101 to 0.25 µM in assay [2].

In the case of `COCCN(c1c(NC(=O)Nc2cnc(-n3nccn3)c(C(F)(F)F)c2)cnc2sc(C)nc12)C1CC1` [Compound 69, 1-(6-(2H-1,2,3-Triazol-2-yl)-5-(trifluoromethyl)pyridin-3-yl)-3-(7-(cyclopropyl (2-methoxyethyl)amino)-2-methylthiazolo[5,4-b]pyridin-6-yl)urea], the concentration for half-maximal inhibition (IC50) in assay [1] is 0.001 to 0.1 µM; in assay [2] it was 0.101 to 0.25 µM.

With `CCC(c1c(NC(=O)Nc2cnc(-n3nccn3)c(C(F)(F)F)c2)cnc2sc(C)nc12)N(C)C` (stereo not drawn) [Compound 75a, 1-(6-(2H-1,2,3-Triazol-2-yl)-5-(trifluoromethyl)pyridin-3-yl)-3-(7-(1-(dimethylamino)propyl)-2-methylthiazolo[5,4-b]pyridin-6-yl)urea], the figures for the IC50 in assay [1] and in assay [2] were 0.101 to 0.5 µM and 0.501 to 1.5 µM, respectively.

As for `COC(c1c(NC(=O)Nc2cnc(-n3nccn3)c(Cl)c2)cnc2sc(C)nc12)C(C)C` (stereo not drawn) [Compound 79a, 1-(5-Chloro-6-(2H-1,2,3-triazol-2-yl)pyridin-3-yl)-3-(7-(1-methoxy-2-methylpropyl)-2-methylthiazolo[5,4-b]pyridin-6-yl)urea], the IC50 in assay [1] was in the range of 0.101 to 0.5 µM; in assay [2], 0.101 to 0.25 µM.

As for `COc1nc(-n2nccn2)c(C(F)(F)F)cc1NC(=O)Nc1cnc2sc(C)nc2c1C(OC)C(C)C` (stereo not drawn) [Compound 80a, 1-(7-(1-Methoxy-2-methylpropyl)-2-methylthiazolo[5,4-b]pyridin-6-yl)-3-(2-methoxy-6-(2H-1,2,3-triazol-2-yl)-5-(trifluoromethyl)pyridin-3-yl)urea], the IC50 in assay [1] was in the range of 0.001 to 0.1 µM; in assay [2] it was 0.026 to 0.1 µM.

On to `COC(c1ccc(F)cc1)c1c(NC(=O)Nc2cnc(-n3nccn3)c(C(F)(F)F)c2)cnc2sc(C)nc12` (stereo not drawn) [Compound 85b, 1-(6-(2H-1,2,3-Triazol-2-yl)-5-(trifluoromethyl)pyridin-3-yl)-3-(7-((4-fluorophenyl)(methoxy)methyl)-2-methylthiazolo[5,4-b]pyridin-6-yl)urea], for which the 50% inhibitory concentration (IC50) fell in the range of 0.001 to 0.1 µM in assay [1] and 0.251 to 0.5 µM in assay [2].

As for `COC(c1c(NC(=O)Nc2cnc(-n3nccn3)c(C(F)(F)F)c2)cnc2sc(C)nc12)C1CCC1` (stereo not drawn) [Compound 224b, 1-(6-(2H-1,2,3-Triazol-2-yl)-5-(trifluoromethyl)pyridin-3-yl)-3-(7-(cyclobutyl(methoxy)methyl)-2-methylthiazolo[5,4-b]pyridin-6-yl)urea], the IC50 in assay [1] lay within 0.001 to 0.1 µM; in assay [2], 0.0001 to 0.025 µM.

Turning to `COC(c1c(NC(=O)Nc2cnc(-n3nccn3)c(Cl)c2)cnc2sc(C)nc12)C1CCC1` (stereo not drawn) [Compound 225b, 1-(5-Chloro-6-(2H-1,2,3-triazol-2-yl)pyridin-3-yl)-3-(7-(cyclobutyl(methoxy)methyl)-2-methylthiazolo[5,4-b]pyridin-6-yl)urea], the IC50 in assay [1] is 0.001 to 0.1 µM; in assay [2], 0.026 to 0.1 µM.

Regarding `CCOc1nc(-n2nccn2)c(C(F)(F)F)cc1NC(=O)Nc1cnc2sc(C)nc2c1C(OC)C1CC1` (stereo not drawn) [Compound 226a, 1-(7-(Cyclopropyl(methoxy)methyl)-2-methylthiazolo[5,4-b]pyridin-6-yl)-3-(2-ethoxy-6-(2H-1,2,3-triazol-2-yl)-5-(trifluoromethyl)pyridin-3-yl)urea], the half-maximal inhibitory concentration (IC50) in assay [1] lay within 0.001 to 0.1 µM; in assay [2], 0.026 to 0.1 µM.
